Test results published in patent US9259443B2, “Compositions and methods for the generation of platelets and methods of use thereof” (The Children's Hospital of Philadelphia, priority 2010, dated 2016).

Assays:
hαIIb+ recipient mice = assay: FL cells grown with metalloproteinase (ADAM17) inhibitors, infused into hαIIb+ mice, derived platelet half-life; assay type: in vivo, mouse
NSG mice = assay: Infusion of human platelets or human ex vivo-grown megakaryocytes into NSG mice; assay type: in vivo, mouse; settings: for time of spike of platelets after infusion: NSG mice; for platelets per megakaryocyte: two million large cells
Experimental: FIG. 7A provides a graph of human platelets infused into immune-suppressed NOD/SCID/[…] NSG mice over time. FIG. 7B provides a graph of the percentage of human platelets over time after infusion of fetal liver megakaryocytes into NSG mice. FIG. 7C provides a graph of human platelets over time after infusion of dimethylfasudil (diMF; 5 μM), a Rho/ROCK1 kinase inhibitor, treated human fetal liver megakaryocytes (large cells) into NSG mice. FIG. 7D provides a graph of human platelets over time after infusion of human megakaryocytes (large cell) from CD34+ bone marrow cells into NSG mice. FIG. 7E provides a graph of human platelets over time after infusion of dimethylfasudil (2 μM)-treated human CD34+ bone marrow megakaryocytes (large cell) into NSG mice.
NSG mice (Shultz et al. (2007) Nat. Rev. Immunol., 7:118-130; Shultz et al. (2005) J. Immunol., 174:6477-89) were infused with human platelets. […] When human fetal liver (FL) megakaryocytes were infused into NSG mice, a spike of platelets was observed within 10 hours of infusion (FIG. 7B). Two million large cells infused yielded about 13 platelets per megakaryocyte.
To increase platelet production, dimethylfasudil (diMF), a Rho/ROCK1 kinase inhibitor, was tested for its ability to promote human FL megakaryocyte maturation. […] Further, the infusion of two million large cells yielded only about 6 platelets per megakaryocyte. Next, human-Megs (large) from bone marrow (BM) CD34+ cells were infused into NSG mice. […] Further, the infusion of two million large cells yielded about 70 platelets per megakaryocyte. When BM CD34+ Megs (large) were treated with DiMF (2 μm) and infused into NSG mice, a spike of platelets was observed immediately (FIG. 7E). Further, the infusion of two million large cells yielded only about 4 platelets per megakaryocyte.

[1] = BM CD34+ Megs (large) treated with DiMF 2 μm
[2] = human FL-megakaryocytes (large) treated with DiMF 5 μm

## CC(C)C[C@H](CC(=O)NO)C(=O)N[C@@H](Cc1ccc2ccccc2c1)C(=O)N[C@@H](C)C(=O)NCCN [TAP-1]
hαIIb+ recipient mice; FL cells grown with TAP-1 10 μM
  change in derived platelet half-life: no change

## CNC(=O)[C@H](Cc1c[nH]c2ccccc12)NC(=O)[C@@H](CC(=O)NO)CC(C)C [GM6001]
hαIIb+ recipient mice; FL cells grown with GM6001 100 μM
  change in derived platelet half-life: no change

## Cc1cncc2cccc(S(=O)(=O)N3CCCNC[C@@H]3C)c12 [DiMF, dimethylfasudil]
NSG mice; [1]
  time of spike of platelets after infusion: immediately
  platelets per megakaryocyte: about 4
NSG mice; [2]
  time of spike of platelets after infusion: within about one hour
  platelets per megakaryocyte: about 6
